{"source": "paper PMC5218480", "about": "(PLoS ONE, 2017)", "test_system": "MV-4-11 cells", "assay": "Gene expression microarray analysis (Affymetrix PrimeView) and GSEA", "assay_type": "cell-based, human", "set-up": "RFU PODN (11730768_x_at) / Fold change /veh PODN (11730768_x_at) / RFU LINC00158 (11744669_a_at) / Fold change /veh LINC00158 (11744669_a_at) / RFU DUSP10 (11751237_a_at) / Fold change /veh DUSP10 (11751237_a_at) / RFU ID3 (11757404_x_at) / Fold change /veh ID3 (11757404_x_at) / RFU PLEKHG5 (11737974_s_at) / Fold change /veh PLEKHG5 (11737974_s_at) / RFU LRRC4B (11730491_at) / Fold change /veh LRRC4B (11730491_at) / RFU GIMAP4 (11747438_a_at) / Fold change /veh GIMAP4 (11747438_a_at) / RFU KRT8 (11758183_x_at) / Fold change /veh KRT8 (11758183_x_at) / RFU CNN1 (11734310_a_at) / Fold change /veh CNN1 (11734310_a_at) / RFU VPS37D (11726825_at) / Fold change /veh VPS37D (11726825_at) / RFU C10orf10 (11716522_x_at) / Fold change /veh C10orf10 (11716522_x_at) / RFU KIR2DL2 /// KIR2DL4 /// KIR2DL5A /// KIR2DL5B /// KIR2DS1 /// KIR2DS2 /// KIR2DS3 /// KIR2DS4 /// KIR3DL3 /// KIR3DL3 /// KIR3DS1 (11738374_at) / Fold change /veh KIR2DL2 /// KIR2DL4 /// KIR2DL5A /// KIR2DL5B /// KIR2DS1 /// KIR2DS2 /// KIR2DS3 /// KIR2DS4 /// KIR3DL3 /// KIR3DL3 /// KIR3DS1 (11738374_at) / RFU C1QL1 (11718748_at) / Fold change /veh C1QL1 (11718748_at) / RFU TMPRSS4 (11747572_a_at) / Fold change /veh TMPRSS4 (11747572_a_at) / RFU HAMP (11756126_x_at) / Fold change /veh HAMP (11756126_x_at) / RFU RNFT2 (11725882_a_at) / Fold change /veh RNFT2 (11725882_a_at) / RFU NR4A2 (11747474_a_at) / Fold change /veh NR4A2 (11747474_a_at) / RFU ABCC12 (11746883_a_at) / Fold change /veh ABCC12 (11746883_a_at) / RFU TMEM136 (11760407_x_at) / Fold change /veh TMEM136 (11760407_x_at) / RFU CLDN22 /// WWC2 (11732394_at) / Fold change /veh CLDN22 /// WWC2 (11732394_at) / RFU HLA-DPB1 (11760878_x_at) / Fold change /veh HLA-DPB1 (11760878_x_at) / RFU SPINT1 (11716480_a_at) / Fold change /veh SPINT1 (11716480_a_at) / RFU GAP43 (11754022_s_at) / Fold change /veh GAP43 (11754022_s_at) / RFU A4GNT (11735810_at) / Fold change /veh A4GNT (11735810_at) / RFU PRB3 (11715151_x_at) / Fold change /veh PRB3 (11715151_x_at) / RFU TUBB4B (11761932_at) / Fold change /veh TUBB4B (11761932_at) / RFU CAPN14 (11732068_a_at) / Fold change /veh CAPN14 (11732068_a_at) / RFU TMCC2 (11721928_a_at) / Fold change /veh TMCC2 (11721928_a_at) / RFU IRGQ (11745062_a_at) / Fold change /veh IRGQ (11745062_a_at) / RFU FAM174B (11720279_a_at) / Fold change /veh FAM174B (11720279_a_at) / RFU TMPRSS4 (11748680_a_at) / Fold change /veh TMPRSS4 (11748680_a_at) / RFU FAM212B (11763350_a_at) / Fold change /veh FAM212B (11763350_a_at) / RFU PLEKHG5 (11743358_a_at) / Fold change /veh PLEKHG5 (11743358_a_at) / RFU ZSCAN30 (11745921_a_at) / Fold change /veh ZSCAN30 (11745921_a_at) / RFU CMKLR1 (11741424_a_at) / Fold change /veh CMKLR1 (11741424_a_at) / RFU LOC101060620 /// MAPK8IP1 (11723275_at) / Fold change /veh LOC101060620 /// MAPK8IP1 (11723275_at) / RFU SPTSSB (11747773_x_at) / Fold change /veh SPTSSB (11747773_x_at) / RFU PRSS12 (11739890_at) / Fold change /veh PRSS12 (11739890_at) / RFU BIN1 (11741810_x_at) / Fold change /veh BIN1 (11741810_x_at) / RFU WNT11 (11732464_a_at) / Fold change /veh WNT11 (11732464_a_at) / RFU C10orf10 (11716521_a_at) / Fold change /veh C10orf10 (11716521_a_at) / RFU C5orf56 (11738089_at) / Fold change /veh C5orf56 (11738089_at) / RFU CYB561 (11721691_x_at) / Fold change /veh CYB561 (11721691_x_at) / RFU ANKRD19P (11752326_a_at) / Fold change /veh ANKRD19P (11752326_a_at) / RFU OR2T12 /// OR2T33 /// OR2T8 (11738714_s_at) / Fold change /veh OR2T12 /// OR2T33 /// OR2T8 (11738714_s_at) / RFU VCAN (11748164_a_at) / Fold change /veh VCAN (11748164_a_at) / RFU JSRP1 (11732532_at) / Fold change /veh JSRP1 (11732532_at) / RFU KRTAP10-11 (11738290_x_at) / Fold change /veh KRTAP10-11 (11738290_x_at) / RFU MYO3A (11730013_a_at) / Fold change /veh MYO3A (11730013_a_at) / RFU EBF3 (11725865_a_at) / Fold change /veh EBF3 (11725865_a_at) / RFU CAMK2N1 (11719241_x_at) / Fold change /veh CAMK2N1 (11719241_x_at) / RFU C5orf56 (11738088_a_at) / Fold change /veh C5orf56 (11738088_a_at) / RFU OLFML3 (11715873_a_at) / Fold change /veh OLFML3 (11715873_a_at) / RFU LOC100653217 /// NTM (11731650_a_at) / Fold change /veh LOC100653217 /// NTM (11731650_a_at) / RFU MAPK11 (11762145_a_at) / Fold change /veh MAPK11 (11762145_a_at) / RFU FIZ1 (11724087_x_at) / Fold change /veh FIZ1 (11724087_x_at) / RFU OASL (11726364_x_at) / Fold change /veh OASL (11726364_x_at) / RFU SOX15 (11748057_x_at) / Fold change /veh SOX15 (11748057_x_at) / RFU CD79A (11719716_a_at) / Fold change /veh CD79A (11719716_a_at) / RFU HIST1H1D (11736915_at) / Fold change /veh HIST1H1D (11736915_at) / RFU CASKIN2 (11723855_a_at) / Fold change /veh CASKIN2 (11723855_a_at) / RFU LOC730098 (11760151_x_at) / Fold change /veh LOC730098 (11760151_x_at) / RFU OR4N2 (11742367_at) / Fold change /veh OR4N2 (11742367_at) / RFU PRRT2 (11749266_a_at) / Fold change /veh PRRT2 (11749266_a_at) / RFU SNX32 (11753110_a_at) / Fold change /veh SNX32 (11753110_a_at) / RFU CDHR5 (11726645_a_at) / Fold change /veh CDHR5 (11726645_a_at) / RFU RCAN1 (11760418_a_at) / Fold change /veh RCAN1 (11760418_a_at) / RFU FAM167A (11723789_a_at) / Fold change /veh FAM167A (11723789_a_at) / RFU FAM26E (11764081_at) / Fold change /veh FAM26E (11764081_at) / RFU ISYNA1 (11749810_s_at) / Fold change /veh ISYNA1 (11749810_s_at) / RFU ACY1 (11761880_at) / Fold change /veh ACY1 (11761880_at) / RFU 11764098_at / Fold change /veh 11764098_at / RFU SAMD14 (11745864_x_at) / Fold change /veh SAMD14 (11745864_x_at) / RFU NPB (11741838_a_at) / Fold change /veh NPB (11741838_a_at) / RFU TMPRSS6 (11731388_a_at) / Fold change /veh TMPRSS6 (11731388_a_at) / RFU KRTAP10-2 (11738614_at) / Fold change /veh KRTAP10-2 (11738614_at) / RFU ARHGAP8 /// PRR5-ARHGAP8 (11727945_x_at) / Fold change /veh ARHGAP8 /// PRR5-ARHGAP8 (11727945_x_at) / RFU KRTAP5-7 /// NADSYN1 (11734609_at) / Fold change /veh KRTAP5-7 /// NADSYN1 (11734609_at) / RFU RASL12 (11751679_a_at) / Fold change /veh RASL12 (11751679_a_at) / RFU CDKN2B (11736163_a_at) / Fold change /veh CDKN2B (11736163_a_at) / RFU PRF1 (11729649_at) / Fold change /veh PRF1 (11729649_at) / RFU, ZNF638 /// ZNF638-IT1 / Fold change vs veh, ZNF638 /// ZNF638-IT1 / RFU, PANK3 / Fold change vs veh, PANK3 / RFU, SH3YL1 / Fold change vs veh, SH3YL1 / RFU, ZEB2 / Fold change vs veh, ZEB2 / RFU, NRIP1 / Fold change vs veh, NRIP1 / RFU, PTTG1IP / Fold change vs veh, PTTG1IP / RFU, CAPN2 / Fold change vs veh, CAPN2 / RFU, MED14 / Fold change vs veh, MED14 / RFU, SNORA58 / Fold change vs veh, SNORA58 / RFU, C1orf63 / Fold change vs veh, C1orf63 / RFU, LRRFIP1 / Fold change vs veh, LRRFIP1 / RFU, NDUFAF7 / Fold change vs veh, NDUFAF7 / RFU, SLC12A2 / Fold change vs veh, SLC12A2 / RFU, IBTK / Fold change vs veh, IBTK / RFU, ESF1 / Fold change vs veh, ESF1 / Fold change vs veh, TMEM50B / RFU, TAOK1 / Fold change vs veh, TAOK1 / RFU, ACBD3 / Fold change vs veh, ACBD3 / RFU, TMA16 / Fold change vs veh, TMA16 / RFU, RWDD3 / Fold change vs veh, RWDD3 / RFU, BCAT1 / Fold change vs veh, BCAT1 / RFU, EDEM3 / Fold change vs veh, EDEM3 / RFU, TMEM33 / Fold change vs veh, TMEM33 / RFU, WDR75 / Fold change vs veh, WDR75 / RFU, AHCTF1 / Fold change vs veh, AHCTF1 / RFU, TFRC / Fold change vs veh, TFRC / RFU, ZDHHC17 / Fold change vs veh, ZDHHC17 / RFU, NOM1 / Fold change vs veh, NOM1 / RFU, ARL8B / Fold change vs veh, ARL8B / RFU, ZBTB11 / Fold change vs veh, ZBTB11 / RFU, TAMM41 / Fold change vs veh, TAMM41 / RFU, KIAA1704 /// LOC100996395 / Fold change vs veh, KIAA1704 /// LOC100996395 / RFU, ING1 / Fold change vs veh, ING1 / RFU, TRMT61B / Fold change vs veh, TRMT61B / RFU, FUBP3 / Fold change vs veh, FUBP3 / RFU, TP53 / Fold change vs veh, TP53 / RFU, TNKS2 / Fold change vs veh, TNKS2 / RFU, ZFP14 / Fold change vs veh, ZFP14 / RFU, ACTR2 / Fold change vs veh, ACTR2 / RFU, PPP3R1 / Fold change vs veh, PPP3R1 / RFU, PIK3R1 / Fold change vs veh, PIK3R1 / RFU, HNRNPA1 / Fold change vs veh, HNRNPA1 / RFU, RNF170 / Fold change vs veh, RNF170 / RFU, ZNF28 / Fold change vs veh, ZNF28 / RFU, RNGTT / Fold change vs veh, RNGTT / RFU, OGT / Fold change vs veh, OGT / RFU, BRD1 / Fold change vs veh, BRD1 / RFU, MARS / Fold change vs veh, MARS / RFU, ZNF655 / Fold change vs veh, ZNF655 / RFU, FAHD1 / Fold change vs veh, FAHD1 / RFU, BDP1 / Fold change vs veh, BDP1 / RFU, LRRCC1 / Fold change vs veh, LRRCC1 / RFU, ARID1A / Fold change vs veh, ARID1A / RFU, ZNF146 / Fold change vs veh, ZNF146 / RFU, ZNF330 / Fold change vs veh, ZNF330 / RFU, GPN3 / Fold change vs veh, GPN3 / RFU, C9orf123 / Fold change vs veh, C9orf123 / RFU, N4BP2L2 / Fold change vs veh, N4BP2L2 / RFU, ARFIP1 / Fold change vs veh, ARFIP1 / RFU, FAM179B / Fold change vs veh, FAM179B / RFU, BCL10 / Fold change vs veh, BCL10 / RFU, UHRF1BP1L / Fold change vs veh, UHRF1BP1L / RFU, BET1 / Fold change vs veh, BET1 / RFU, CNOT2 / Fold change vs veh, CNOT2 / RFU, ZNF268 / Fold change vs veh, ZNF268 / Fold change vs veh, ZNF507 / RFU, DGCR2 / Fold change vs veh, DGCR2 / RFU, WDSUB1 / Fold change vs veh, WDSUB1 / Fold change vs veh, HSP90B1 /// MIR3652 / RFU, ADSS / Fold change vs veh, ADSS / RFU, GK / Fold change vs veh, GK / RFU, ZNF148 / Fold change vs veh, ZNF148 / RFU, TAF9 / Fold change vs veh, TAF9 / RFU, SLC1A5 / Fold change vs veh, SLC1A5 / RFU, SLMO2 / Fold change vs veh, SLMO2 / RFU, ABCC4 / Fold change vs veh, ABCC4 / RFU, LOC101060439 /// RAP1B / Fold change vs veh, LOC101060439 /// RAP1B / RFU, RFX7 / Fold change vs veh, RFX7 / RFU, GTPBP10 / Fold change vs veh, GTPBP10 / RFU, CNEP1R1 / Fold change vs veh, CNEP1R1 / RFU, BIVM-ERCC5 /// ERCC5 / Fold change vs veh, BIVM-ERCC5 /// ERCC5 / RFU, ILF3 / Fold change vs veh, ILF3 / RFU 11762660_at / Fold change /veh 11762660_at / RFU VCAN (11757783_s_at) / Fold change /veh VCAN (11757783_s_at) / RFU DDX43 (11728927_at) / Fold change /veh DDX43 (11728927_at) / RFU KRT8 (11758188_x_at) / Fold change /veh KRT8 (11758188_x_at) / RFU NKD1 (11759106_at) / Fold change /veh NKD1 (11759106_at) / RFU SRD5A1 (11742802_a_at) / Fold change /veh SRD5A1 (11742802_a_at) / RFU TPSAB1 /// TPSB2 (11721975_s_at) / Fold change /veh TPSAB1 /// TPSB2 (11721975_s_at) / RFU GSTM3 (11746129_a_at) / Fold change /veh GSTM3 (11746129_a_at) / RFU IL23R (11737362_x_at) / Fold change /veh IL23R (11737362_x_at) / RFU TMEM51 (11727254_a_at) / Fold change /veh TMEM51 (11727254_a_at) / RFU PIWIL2 (11732686_x_at) / Fold change /veh PIWIL2 (11732686_x_at) / RFU ORM1 (11744905_x_at) / Fold change /veh ORM1 (11744905_x_at) / RFU CCDC152 (11743942_at) / Fold change /veh CCDC152 (11743942_at) / RFU ECM1 (11717891_a_at) / Fold change /veh ECM1 (11717891_a_at) / RFU IL23R (11748794_a_at) / Fold change /veh IL23R (11748794_a_at) / RFU TNFAIP8L3 (11732012_x_at) / Fold change /veh TNFAIP8L3 (11732012_x_at) / RFU MBOAT4 (11741988_at) / Fold change /veh MBOAT4 (11741988_at) / RFU 11764193_at / Fold change /veh 11764193_at / RFU TMEM53 (11763286_at) / Fold change /veh TMEM53 (11763286_at) / RFU MAGEB2 (11727129_at) / Fold change /veh MAGEB2 (11727129_at) / RFU TMEM200A (11744735_a_at) / Fold change /veh TMEM200A (11744735_a_at) / RFU CCDC152 (11751479_a_at) / Fold change /veh CCDC152 (11751479_a_at) / RFU FAM211A (11726209_a_at) / Fold change /veh FAM211A (11726209_a_at) / RFU RGS16 (11746705_a_at) / Fold change /veh RGS16 (11746705_a_at) / RFU VCAN (11755009_s_at) / Fold change /veh VCAN (11755009_s_at) / RFU RHOB (11743442_s_at) / Fold change /veh RHOB (11743442_s_at) / RFU RGS16 (11720943_a_at) / Fold change /veh RGS16 (11720943_a_at) / RFU RGS16 (11720944_at) / Fold change /veh RGS16 (11720944_at) / RFU, VPS4B / Fold change vs veh, VPS4B / RFU, CREB1 / Fold change vs veh, CREB1 / RFU, DNAJC13 / Fold change vs veh, DNAJC13 / RFU, GNAQ / Fold change vs veh, GNAQ / RFU, CDK5R1 / Fold change vs veh, CDK5R1 / RFU, ZRANB3 / Fold change vs veh, ZRANB3 / RFU, CUL4A / Fold change vs veh, CUL4A / RFU, CCNY / Fold change vs veh, CCNY / RFU, UFL1 / Fold change vs veh, UFL1 / RFU, COG3 / Fold change vs veh, COG3 / RFU, DIAPH2 / Fold change vs veh, DIAPH2 / RFU, SKA2 / Fold change vs veh, SKA2 / RFU, AFF3 / Fold change vs veh, AFF3 / RFU, LMF1 / Fold change vs veh, LMF1 / RFU, IPO11 / Fold change vs veh, IPO11 / RFU, DFFB / Fold change vs veh, DFFB / RFU, FOXP1 / Fold change vs veh, FOXP1 / RFU, CARD8 / Fold change vs veh, CARD8 / RFU, STRN3 / Fold change vs veh, STRN3 / RFU, ADK / Fold change vs veh, ADK / RFU, RASSF2 / Fold change vs veh, RASSF2 / RFU, WIPF1 / Fold change vs veh, WIPF1 / RFU, LARP1B / Fold change vs veh, LARP1B / RFU, RASA1 / Fold change vs veh, RASA1 / RFU, RB1 / Fold change vs veh, RB1 / RFU, PPFIA1 / Fold change vs veh, PPFIA1 / RFU, MAT2A / Fold change vs veh, MAT2A / RFU, CCT5 / Fold change vs veh, CCT5 / RFU, WDR92 / Fold change vs veh, WDR92 / RFU, CUX1 / Fold change vs veh, CUX1 / RFU, TTC7A / Fold change vs veh, TTC7A / RFU, TMEM135 / Fold change vs veh, TMEM135 / RFU, DEPTOR / Fold change vs veh, DEPTOR / RFU, CPM / Fold change vs veh, CPM / RFU, DNAJB6 / Fold change vs veh, DNAJB6 / RFU, CACNA2D3 / Fold change vs veh, CACNA2D3 / RFU, DTX4 / Fold change vs veh, DTX4 / RFU, TFCP2 / Fold change vs veh, TFCP2 / RFU, GMCL1 /// GMCL1P1 / Fold change vs veh, GMCL1 /// GMCL1P1 / RFU, AEBP2 / Fold change vs veh, AEBP2 / RFU, SNHG1 /// SNORD22 /// SNORD25 /// SNORD26 /// SNORD27 /// SNORD28 /// SNORD29 /// SNORD31 / Fold change vs veh, SNHG1 /// SNORD22 /// SNORD25 /// SNORD26 /// SNORD27 /// SNORD28 /// SNORD29 /// SNORD31 / Fold change (Aza/veh), C12orf56 (ProbeSet 11735607_a_at) / Fold change (ACY-1035/veh), C12orf56 (ProbeSet 11735607_a_at) / Fold change (Aza/veh), FGFR1OP (ProbeSet 11751329_s_at) / Fold change (ACY-1035/veh), FGFR1OP (ProbeSet 11751329_s_at) / Fold change (Aza/veh), VPS36 (ProbeSet 11739960_a_at) / Fold change (ACY-1035/veh), VPS36 (ProbeSet 11739960_a_at) / RFU SYPL1 (11715823_x_at) / Fold change /veh SYPL1 (11715823_x_at) / RFU IGFBP7 (11715501_s_at) / Fold change /veh IGFBP7 (11715501_s_at) / RFU REEP3 (11722064_at) / Fold change /veh REEP3 (11722064_at) / RFU IGLL1 (11728026_x_at) / Fold change /veh IGLL1 (11728026_x_at): dose or concentration left out as unconfirmed", "settings": "ProbeSet 11728443_a_at; LIST B", "data": [{"smiles": "Nc1ncn([C@@H]2O[C@H](CO)[C@@H](O)[C@H]2O)c(=O)n1", "note": "[azacitidine]", "values": [{"measurement": "RFU, TAOK1", "result": 59.03, "unit": "RFU"}]}]}
